Patent US20230002355A1 (NANJING SANHOME PHARMACEUTICAL CO., LTD., priority 2019, published 2023)
Where two headings read alike, the source gives them in different places.

Key:
[1] = test system: NCI-H358 cells; assay: Cell proliferation inhibition test (CCK-8); assay type: cell-based; conditions: NCI-H358 human non-small cell lung cancer cells, 168 h, read-out: NIH358 cell proliferation inhibition IC50
Procedure: Test compounds: The compounds prepared in examples and comparative example of the present disclosure was tested. Each compound was formulated with DMSO into 20 mM. The concentrations of the compounds acting on NCI-H358 cells were 100 μM, 25 μM, 6.25 μM, 1.56 μM, 0.391 μM, 0.098 μM, 0.024 μM, 0.006 μM, 0.0015 μM, and 0.00038 μM successively.
Human non-small cell lung cancer cells NCI-H358 were purchased from the American Type Culture Collection (ATCC).
Reagents: The CCK-8 proliferation inhibition detection kit was purchased from Jiangsu KeyGEN BioTECH Co., Ltd. The CKX41 inverted microscope was purchased from Olympus, Japan. The multi-mode microplate reader was purchased from Molecular Devices, USA. The cell culture incubator was purchased from Thermo, USA.
Cell recovery: A NCI-H358 cell cryogenic vial was taken out from a liquid nitrogen tank, placed in water bath at 37° C., and shaked gently to allow it to thaw. The thawed cryogenic vial was disinfected with alcohol cotton, and opened to aspirate the cell fluid into a centrifuge tube. To the centrifuge tube, 1 mL of serum-containing complete medium was added and well-mixed. The centrifuge tube was placed into a centrifuge, for centrifugation at 1000 rpm for 5 min. Then the supernatant was discarded, and complete medium was added to completely dissipate and resuspend the cells through repeated pipetting. The cells were seeded in petri dishes at appropriate concentrations and cultured in a CO2 incubator at 37° C., with 5% CO2, 95% humidified air.
Cell passage: After the cells grew to about 80-90% confluence, the original culture medium (1640 culture medium+10% FBS+1% penicillin-streptomycin+1 mM sodium pyruvate) was discarded, and 1 mL of PBS was added to wash away the residual medium and then discarded. 1 mL of trypsin digestion solution was added to digest for 1-2 min. […] The cell suspension was collected by gently pipetting, and centrifuged at 1000 rpm for 5 min. After discarding the supernatant, the cells was resuspended in complete medium, seeded in petri dishes at the required density, and then cultured in a CO2 incubator at 37° C., with 5% CO2, 95% humidified air. Depending on cell growth, the culture medium was changed or passaged every 2-3 days.
After NCI-H358 cell passage, the cells were resuspended in fresh culture medium (1640 culture medium+3% FBS+1% penicillin-streptomycin+1 mM sodium pyruvate), and counted. The cells were seeded into a 96-well culture plate at a density of 1.5×10^4 cells/mL, with each well added 100 μL thereto (ie, 1.5×10^3 cells/well). After 24 h, 100 μL of fresh culture medium containing different drug concentrations (2×) was added to the old culture medium. The final concentrations of the compounds were 100 μM, 25 μM, 6.25 μM, 1.56 μM, 0.391 μM, 0.098 μM, 0.024 μM, 0.006 μM, 0.0015 μM, and 0.00038 μM, with each concentration group set two replicate wells. The cells were […] in the incubator again for 168 h. The culture medium in wells was discarded as thoroughly as possible, and 100 μL of culture medium containing CCK-8 (CCK-8:culture medium=1:10) was added. After a certain time of culture in the incubator, the 96-well plate was taken out of the incubator, and allowed to equilibrate at room temperature for 5 min. The absorbance (OD value) at 450 nm was detected in a multi-mode plate reader, and the cell proliferation inhibition rate was calculated. The calculation formula was Inhibition (%)=100−(ODexperiment well−ODblank well)/(ODsolvent control well−ODblank well)×100. According to different drug concentrations and their corresponding inhibition rates, IC50 curves were plotted using GraghPad 5.0 software, to analyze the data and to obtain final IC50.

[2] = Pharmacokinetic experiment in mice; assay type: in vivo; conditions: mouse, plasma, male BALB/c mice; for bioavailability: I.G. 10 mg/kg vs IV 1 mg/kg, read-out: bioavailability F; for AUC(0-inf) / AUC(0-t) / Cmax / half-life: I.G., 10 mg/kg
Procedure: Compounds: The compounds of the present disclosure prepared in the above examples were tested. The drug vehicle was Captisol/50 mM sodium acetate with pH 4.6 (10%/90%, w/v %). Oral drugs were formulated into a 0.5 mg/mL clear solution. Intravenous drug were formulated into a 0.1 mg/mL clear solution.
Animals: Male BALB/c mice, SPF grade, were purchased from Shanghai SIPPR-Bk Lab Animal Co., Ltd, with a weight of 18-20 g, and adapted for 2-3 days before experiments.
Instrument: API4500-type Triple Quadrupole LC/MS System, from AB, United States, equipped with electrospray ion source (ESI) and dual pumps LC-30AD; SIL-30AC autosampler; CTO-30AC column oven; DGU-20A3R degasser; AnalystQSA01.01 chromatography workstation; Milli-Q ultrapure water device (Millipore Inc); QilinbeierVortex-5 shaker; HITACHI CF16RX II desktop high-speed freezing centrifuge.
(1) There were 3 mice per group. The compounds of the examples of the present disclosure were given by intragastric administration (I.G.) at 10 mg/kg, or the compounds of the examples of the present disclosure were given by intravenous (IV) administration at 1 mg/kg.
(2) At 5 min, 15 min, 30 min, 1 h, 2 h, 6 h, 10 h, and 24 h after the intragastric administration or intravenous administration, blood was collected from the orbital venous plexus in heparinized EP tubes (0.6 ML), and centrifuged at 8000 rpm/min for 5 min. The upper plasma was taken, frozen at −20° C. and analyzed by LC-MS/MS.
(3) Plasma drug concentration-time curves were plotted according to blood drug concentration data obtained from the above-mentioned step. Pharmacokinetic parameters were calculated by using WinNonlin software.

**Q.** Which IC50 [1] does the source give for `Cc1nc(N2CCC3(CC2)Oc2ccccc2[C@H]3N)n2ccnc2c1-c1cccc(Cl)c1Cl` [Example 48, (R)-1′-(8-(2,3-dichlorophenyl)-7-methylimidazo[1,2-c]pyrimidin-5-yl)-3H-spiro[benzofuran-2,4′-piperidine]-3-amine] here?
**A.** 12 nM

**Q.** What about the bioavailability ([2]; po) of the same compound?
**A.** 81.2%

**Q.** And the AUC(0-inf) ([2]; po)?
**A.** 37000 ng·h/mL

**Q.** And the AUC(0-t) ([2]; po)?
**A.** 24200 ng·h/mL

**Q.** What about the Cmax ([2]; po) of the same compound?
**A.** 1890 ng/mL

**Q.** What about the half-life ([2]; po) of the same compound?
**A.** 936 min

**Q.** Which IC50 [1] does the source give for `Cn1c(N2CCC3(CC2)Oc2ccccc2[C@H]3N)nc2n[nH]c(-c3ccnc(NC4CC4)c3Cl)c2c1=O` [Example 51] here?
**A.** 6 nM

**Q.** With `Cn1c(N2CCC3(CC2)Cc2ccccc2[C@H]3N)nc(N)c(Sc2cccc(C#N)c2Cl)c1=O` [Example 9, (S)-3-((4-amino-2-(1-amino-1,3-dihydrospiro[indene-2,4′-piperidine]-1′-yl)-1-methyl-6-oxo-1,6-dihydropyrimidin-5-yl)thio)-2-chlorobenzonitrile] as the compound, how does the IC50 [1] read?
**A.** 1.5 nM

**Q.** What does the source list for `Nc1nccc(Sc2cnc(N3CCC4(CC3)Oc3ccccc3[C@H]4N)n3ccnc23)c1Cl` [Example 45]?
**A.** IC50 [1]: 3.9 nM; bioavailability ([2]; po): 78.3%; AUC(0-inf) ([2]; po): 21600 ng·h/mL; AUC(0-t) ([2]; po): 19400 ng·h/mL; Cmax ([2]; po): 1590 ng/mL; half-life ([2]; po): 438 min

**Q.** For `Cc1ncccc1Sc1c(N)nc(N2CCC3(CC2)Cc2ccccc2[C@H]3N)n(C)c1=O` [Example 6, (S)-6-amino-2-(1-amino-1,3-dihydrospiro[indene-2,4′-piperidine]-1′-yl)-3-methyl-5-((2-methylpyridin-3-yl)thio)pyrimidin-4(3H)-one], which IC50 [1] is on record?
**A.** 2.8 nM

**Q.** With `Nc1nccc(Sc2cnc(N3CCC4(CC3)Oc3ccccc3[C@H]4N)n3ccnc23)c1F` [Example 47, (R)-1′-(8-(((2-amino-3-fluoropyridin-4-yl)thio)imidazo[1,2-c]pyrimidin-5-yl)-3H-spiro[benzofuran-2,4′-piperidin]]-3-amine] as the compound, how does the IC50 [1] read?
**A.** 16.7 nM

**Q.** For `Nc1nc(N2CCC3(CC2)Oc2ccccc2[C@H]3N)cnc1Sc1ccnc(N)c1Cl` [Compound A], which IC50 [1] is on record?
**A.** 18.3 nM

**Q.** And the bioavailability ([2]; oral)?
**A.** 51.2%

**Q.** Which IC50 [1] does the source give for `Nc1nccc(Sc2cnc(N3CCC4(CC3)Cc3ncccc3[C@H]4N)n3ccnc23)c1Cl` [Example 46, (S)-1′-(8-((2-amino-3-chloropyridin-4-yl)thio)imidazo[1,2-c]pyrimidin-5-yl)-5,7-dihydrospiro[cyclopenta[b]pyridine-6,4′-piperidine]-5-amine] here?
**A.** 8.5 nM

**Q.** Which IC50 [1] does the source give for `Cn1c(N2CCC3(CC2)Cc2ccccc2[C@H]3N)nc(N)c(Sc2ccnc(N)c2Cl)c1=O` [Example 8] here?
**A.** 3.3 nM

**Q.** Which IC50 [1] does the source give for `Cn1c(N2CCC3(CC2)Cc2ccccc2[C@H]3N)nc(N)c(Sc2cccnc2C(F)(F)F)c1=O` [Example 1, (S)-6-amino-2-(1-amino-1,3-dihydrospiro[indene-2,4′-piperidin]-1′-yl)-3-methyl-5-((2-(trifluoromethyl)pyridin-3-yl)thio)pyrimidin-4(3H)-one] here?
**A.** 1.6 nM

**Q.** For `Cn1c(N2CCC3(CC2)Oc2ccccc2[C@H]3N)nc(N)c(Sc2cccnc2C(F)(F)F)c1=O` [Example 53, (R)-6-amino-2-(3-amino-3H-spiro[benzofuran-2,4′-piperidine]-1′-yl)-3-methyl-5-((2-(trifluoromethyl)pyridin-3-yl)thio)pyrimidin-4(3H)-one], which IC50 [1] is on record?
**A.** 4.9 nM

**Q.** What about the bioavailability ([2]; po) of the same compound?
**A.** 74.3%

**Q.** What about the AUC(0-inf) ([2]; po) of the same compound?
**A.** 7410 ng·h/mL

**Q.** What about the AUC(0-t) ([2]; po) of the same compound?
**A.** 6520 ng·h/mL

**Q.** And the Cmax ([2]; po)?
**A.** 1390 ng/mL

**Q.** And the half-life ([2]; po)?
**A.** 180 min

**Q.** For `Cn1c(N2CCC3(CC2)Cc2ccccc2[C@H]3N)nc(N)c(Sc2ccc(N)nc2Cl)c1=O` [Example 4, (S)-6-amino-2-(1-amino-1,3-dihydrospiro[indene-2,4′-piperidine]-1′-yl)-3-methyl-5-((6-amino-2-chloropyridin-3-yl)thio)pyrimidin-4(3H)-one], which IC50 [1] is on record?
**A.** 5.6 nM

**Q.** With `COc1cccc(-c2c(C)nc(N3CCC4(CC3)Oc3ccccc3[C@H]4N)n3ccnc23)c1Cl` [Example 49, (R)-1′-(8-(2-chloro-3-methoxyphenyl)-7-methylimidazo[1,2-c]pyrimidin-5-yl)-3H-spiro[benzofuran-2,4′-piperidine]-3-amine] as the compound, how does the IC50 [1] read?
**A.** 13.3 nM
